How the values were obtained:
Diarrhea Assay = assay type: in vivo, male Charles River rats; details: in vivo
diarrhea = assay: Diarrhea Assay; assay type: in vivo, male Charles River rats

Structure (SMILES)	selectivity ratio (Diarrhea Assay; ratio of rat diarrhea ED50 to Pavlov pouch antisecretory ED50, read-out: Thrapeutic Index ED50 diarrhea/ED50 antisecretory)	Diarrhea Assay Rat (iv) ED50 (diarrhea; Rat (iv) per table head, method text: intragastric, fasted rats, up to eight hours)	TD50 (Diarrhea Assay; Rat (iv) per table head, method text: intragastric, fasted rats, up to eight hours, read-out: Diarrhea Assay Rat (iv) ED50)	Diarrhea Assay Rat (iv), result in words (diarrhea; Rat (iv), at 3200 mcg/kg)
COC(=O)CC/C=C\CC[C@H]1C(=O)C[C@@H](O)[C@@H]1/C=C/CC(C)(O)/C=C/C1=CCCC1 (relative stereo) [Example 1, methyl 7-[3α-hydroxy-2β-(4-hydroxy-4-methyl-6-(1'-cyclopentenyl)-1,5-trans,trans-hexadienyl)-5-oxocyclopentane]-1-α-hept-4-cis-enoate]	160000	3.2 mg/kg	–	–
COC(=O)CC/C=C\CC[C@H]1C(=O)C[C@@H](O)[C@@H]1/C=C/CC(C)(O)/C=C/C=C(C)C (relative stereo) [Example 2]	–	–	3.2 mg/kg	inactive

Source: patent US4847293A, “Tetraenyl prostaglandins” (priority 1988, dated 1989)
